What was measured:
ALK = ALK (Homo sapiens, UniProt Q9UM73); details: 1 μM; Run 1, Run 2
DYRK3 = biological target: T1, DYRK3 (Homo sapiens, UniProt O43781); details: 1 μM; Run 1, Run 2
T1 sequence (O43781 1-588): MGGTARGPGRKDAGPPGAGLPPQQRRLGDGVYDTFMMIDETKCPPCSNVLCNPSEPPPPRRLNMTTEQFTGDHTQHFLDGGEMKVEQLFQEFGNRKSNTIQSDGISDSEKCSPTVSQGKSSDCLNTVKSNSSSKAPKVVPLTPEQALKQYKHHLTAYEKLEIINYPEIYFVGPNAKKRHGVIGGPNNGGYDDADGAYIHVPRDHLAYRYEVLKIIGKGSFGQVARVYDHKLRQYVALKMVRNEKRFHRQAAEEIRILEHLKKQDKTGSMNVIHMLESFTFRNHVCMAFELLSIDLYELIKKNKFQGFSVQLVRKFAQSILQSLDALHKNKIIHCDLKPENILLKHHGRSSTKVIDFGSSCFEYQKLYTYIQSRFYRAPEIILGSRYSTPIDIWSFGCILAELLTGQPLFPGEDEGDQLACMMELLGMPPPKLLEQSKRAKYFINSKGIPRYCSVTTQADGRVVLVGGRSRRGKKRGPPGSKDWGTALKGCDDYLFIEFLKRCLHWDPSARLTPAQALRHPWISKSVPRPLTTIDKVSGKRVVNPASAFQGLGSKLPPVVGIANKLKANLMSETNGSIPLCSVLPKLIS

IKKb/IKBKB = biological target: T2, IKKb/IKBKB (Homo sapiens, UniProt O14920); details: 1 μM; Run 1, Run 2
T2 sequence (O14920 1-756): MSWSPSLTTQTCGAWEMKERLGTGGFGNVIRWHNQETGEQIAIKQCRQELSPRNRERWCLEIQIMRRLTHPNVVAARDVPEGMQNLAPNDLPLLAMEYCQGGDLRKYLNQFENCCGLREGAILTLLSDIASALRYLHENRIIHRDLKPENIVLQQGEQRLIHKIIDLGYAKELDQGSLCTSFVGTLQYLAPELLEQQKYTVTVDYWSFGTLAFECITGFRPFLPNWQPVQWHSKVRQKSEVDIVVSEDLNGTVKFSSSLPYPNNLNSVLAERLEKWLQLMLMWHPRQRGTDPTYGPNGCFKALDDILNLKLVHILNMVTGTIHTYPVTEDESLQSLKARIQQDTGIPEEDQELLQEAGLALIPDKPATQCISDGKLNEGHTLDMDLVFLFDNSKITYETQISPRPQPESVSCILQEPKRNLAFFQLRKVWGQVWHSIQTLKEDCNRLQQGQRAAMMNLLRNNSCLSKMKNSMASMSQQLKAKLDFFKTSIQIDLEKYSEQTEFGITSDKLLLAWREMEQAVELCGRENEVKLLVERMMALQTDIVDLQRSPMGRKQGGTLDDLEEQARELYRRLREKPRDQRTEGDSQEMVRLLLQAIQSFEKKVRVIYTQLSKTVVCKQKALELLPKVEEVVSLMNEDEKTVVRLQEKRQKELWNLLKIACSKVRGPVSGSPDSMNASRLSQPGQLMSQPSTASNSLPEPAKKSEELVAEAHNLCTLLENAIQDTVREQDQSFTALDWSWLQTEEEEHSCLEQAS

MAPKAPK5/PRAK = biological target: T3, MAPKAPK5/PRAK (Homo sapiens, UniProt Q8IW41); details: 1 μM; Run 1, Run 2
T3 sequence (Q8IW41 1-473): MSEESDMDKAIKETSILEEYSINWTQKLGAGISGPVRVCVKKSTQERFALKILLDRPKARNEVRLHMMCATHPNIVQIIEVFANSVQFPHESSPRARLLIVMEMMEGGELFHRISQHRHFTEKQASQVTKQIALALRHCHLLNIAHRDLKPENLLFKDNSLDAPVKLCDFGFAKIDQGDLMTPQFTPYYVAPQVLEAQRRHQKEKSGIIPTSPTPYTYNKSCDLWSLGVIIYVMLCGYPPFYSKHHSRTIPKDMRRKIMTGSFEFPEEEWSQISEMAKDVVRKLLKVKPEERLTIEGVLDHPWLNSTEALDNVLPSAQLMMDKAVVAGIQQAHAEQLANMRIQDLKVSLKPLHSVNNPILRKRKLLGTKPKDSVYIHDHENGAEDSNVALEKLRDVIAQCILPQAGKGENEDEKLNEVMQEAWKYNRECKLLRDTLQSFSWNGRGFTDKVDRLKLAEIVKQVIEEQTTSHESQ

RET = RET (Homo sapiens, UniProt P07949); details: 1 μM; Run 1, Run 2
CLK2 = CLK2 (Homo sapiens, UniProt P49760); assay: biochemical; details: read-out: % enzyme activity, 1 μM; Run 1, Run 2
DCAMKL1 = biological target: T4, DCAMKL1 (Homo sapiens, UniProt O15075); assay: biochemical; details: read-out: % enzyme activity, 1 μM; Run 1, Run 2
T4 sequence (O15075 1-740): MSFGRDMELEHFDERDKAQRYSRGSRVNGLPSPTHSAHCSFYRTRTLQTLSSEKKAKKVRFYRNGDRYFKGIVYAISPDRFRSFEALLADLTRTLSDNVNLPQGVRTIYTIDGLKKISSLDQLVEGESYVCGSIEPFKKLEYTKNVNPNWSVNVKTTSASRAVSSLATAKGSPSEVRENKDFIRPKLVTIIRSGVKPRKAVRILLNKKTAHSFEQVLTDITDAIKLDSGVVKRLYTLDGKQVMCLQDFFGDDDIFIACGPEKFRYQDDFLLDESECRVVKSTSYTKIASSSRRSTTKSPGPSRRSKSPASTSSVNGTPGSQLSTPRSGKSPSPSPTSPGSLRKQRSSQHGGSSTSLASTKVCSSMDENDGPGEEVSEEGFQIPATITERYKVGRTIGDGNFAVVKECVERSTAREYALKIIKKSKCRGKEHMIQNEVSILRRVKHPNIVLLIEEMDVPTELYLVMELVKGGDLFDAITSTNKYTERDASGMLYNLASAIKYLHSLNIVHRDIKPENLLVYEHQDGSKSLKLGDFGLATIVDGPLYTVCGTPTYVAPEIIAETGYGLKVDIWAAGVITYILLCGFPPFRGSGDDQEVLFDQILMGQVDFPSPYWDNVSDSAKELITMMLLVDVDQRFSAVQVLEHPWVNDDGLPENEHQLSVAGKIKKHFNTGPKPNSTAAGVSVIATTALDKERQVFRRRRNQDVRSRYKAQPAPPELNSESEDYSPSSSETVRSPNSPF

Chain of RET (P07949 29-1114): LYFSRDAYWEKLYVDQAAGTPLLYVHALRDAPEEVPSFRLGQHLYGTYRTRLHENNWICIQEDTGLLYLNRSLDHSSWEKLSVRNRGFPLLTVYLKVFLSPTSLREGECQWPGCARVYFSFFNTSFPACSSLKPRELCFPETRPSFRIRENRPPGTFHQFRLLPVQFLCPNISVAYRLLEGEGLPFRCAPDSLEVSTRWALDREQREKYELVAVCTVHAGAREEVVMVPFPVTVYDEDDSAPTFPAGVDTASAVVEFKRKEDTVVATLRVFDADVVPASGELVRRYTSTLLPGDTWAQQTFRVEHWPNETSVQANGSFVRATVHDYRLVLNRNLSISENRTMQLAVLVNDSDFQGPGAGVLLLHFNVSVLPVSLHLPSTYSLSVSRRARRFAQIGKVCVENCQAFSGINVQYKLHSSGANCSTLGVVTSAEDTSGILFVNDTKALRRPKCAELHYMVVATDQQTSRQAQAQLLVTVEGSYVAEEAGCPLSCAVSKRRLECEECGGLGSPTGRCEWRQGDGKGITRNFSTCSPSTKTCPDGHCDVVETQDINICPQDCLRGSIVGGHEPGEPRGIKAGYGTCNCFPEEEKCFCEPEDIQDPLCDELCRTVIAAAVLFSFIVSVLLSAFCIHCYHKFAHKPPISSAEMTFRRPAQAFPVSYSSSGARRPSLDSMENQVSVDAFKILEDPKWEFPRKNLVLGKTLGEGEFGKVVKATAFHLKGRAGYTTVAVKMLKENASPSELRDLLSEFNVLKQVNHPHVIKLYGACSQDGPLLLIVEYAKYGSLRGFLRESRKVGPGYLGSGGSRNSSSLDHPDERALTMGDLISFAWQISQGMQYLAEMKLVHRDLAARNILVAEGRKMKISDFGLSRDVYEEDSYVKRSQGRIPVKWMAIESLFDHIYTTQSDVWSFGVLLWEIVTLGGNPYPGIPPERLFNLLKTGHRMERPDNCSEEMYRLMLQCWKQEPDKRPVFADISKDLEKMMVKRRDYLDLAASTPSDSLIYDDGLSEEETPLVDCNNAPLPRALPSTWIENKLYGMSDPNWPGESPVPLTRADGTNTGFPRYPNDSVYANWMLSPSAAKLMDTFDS
Chain of CLK2 (P49760 whole entry): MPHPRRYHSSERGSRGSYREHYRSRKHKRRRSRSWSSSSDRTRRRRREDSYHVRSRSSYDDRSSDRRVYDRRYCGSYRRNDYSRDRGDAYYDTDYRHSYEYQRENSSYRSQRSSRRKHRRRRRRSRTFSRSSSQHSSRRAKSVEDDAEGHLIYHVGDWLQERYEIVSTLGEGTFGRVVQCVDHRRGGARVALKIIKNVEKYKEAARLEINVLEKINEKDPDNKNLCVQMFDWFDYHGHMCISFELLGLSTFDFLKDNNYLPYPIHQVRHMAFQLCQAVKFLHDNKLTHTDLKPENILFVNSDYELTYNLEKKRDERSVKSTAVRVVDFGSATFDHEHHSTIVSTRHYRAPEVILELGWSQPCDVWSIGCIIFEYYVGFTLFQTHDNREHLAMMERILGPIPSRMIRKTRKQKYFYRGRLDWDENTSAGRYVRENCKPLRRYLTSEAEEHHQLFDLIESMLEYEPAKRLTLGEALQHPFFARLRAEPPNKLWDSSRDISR
Chain of ALK (Q9UM73 19-1620): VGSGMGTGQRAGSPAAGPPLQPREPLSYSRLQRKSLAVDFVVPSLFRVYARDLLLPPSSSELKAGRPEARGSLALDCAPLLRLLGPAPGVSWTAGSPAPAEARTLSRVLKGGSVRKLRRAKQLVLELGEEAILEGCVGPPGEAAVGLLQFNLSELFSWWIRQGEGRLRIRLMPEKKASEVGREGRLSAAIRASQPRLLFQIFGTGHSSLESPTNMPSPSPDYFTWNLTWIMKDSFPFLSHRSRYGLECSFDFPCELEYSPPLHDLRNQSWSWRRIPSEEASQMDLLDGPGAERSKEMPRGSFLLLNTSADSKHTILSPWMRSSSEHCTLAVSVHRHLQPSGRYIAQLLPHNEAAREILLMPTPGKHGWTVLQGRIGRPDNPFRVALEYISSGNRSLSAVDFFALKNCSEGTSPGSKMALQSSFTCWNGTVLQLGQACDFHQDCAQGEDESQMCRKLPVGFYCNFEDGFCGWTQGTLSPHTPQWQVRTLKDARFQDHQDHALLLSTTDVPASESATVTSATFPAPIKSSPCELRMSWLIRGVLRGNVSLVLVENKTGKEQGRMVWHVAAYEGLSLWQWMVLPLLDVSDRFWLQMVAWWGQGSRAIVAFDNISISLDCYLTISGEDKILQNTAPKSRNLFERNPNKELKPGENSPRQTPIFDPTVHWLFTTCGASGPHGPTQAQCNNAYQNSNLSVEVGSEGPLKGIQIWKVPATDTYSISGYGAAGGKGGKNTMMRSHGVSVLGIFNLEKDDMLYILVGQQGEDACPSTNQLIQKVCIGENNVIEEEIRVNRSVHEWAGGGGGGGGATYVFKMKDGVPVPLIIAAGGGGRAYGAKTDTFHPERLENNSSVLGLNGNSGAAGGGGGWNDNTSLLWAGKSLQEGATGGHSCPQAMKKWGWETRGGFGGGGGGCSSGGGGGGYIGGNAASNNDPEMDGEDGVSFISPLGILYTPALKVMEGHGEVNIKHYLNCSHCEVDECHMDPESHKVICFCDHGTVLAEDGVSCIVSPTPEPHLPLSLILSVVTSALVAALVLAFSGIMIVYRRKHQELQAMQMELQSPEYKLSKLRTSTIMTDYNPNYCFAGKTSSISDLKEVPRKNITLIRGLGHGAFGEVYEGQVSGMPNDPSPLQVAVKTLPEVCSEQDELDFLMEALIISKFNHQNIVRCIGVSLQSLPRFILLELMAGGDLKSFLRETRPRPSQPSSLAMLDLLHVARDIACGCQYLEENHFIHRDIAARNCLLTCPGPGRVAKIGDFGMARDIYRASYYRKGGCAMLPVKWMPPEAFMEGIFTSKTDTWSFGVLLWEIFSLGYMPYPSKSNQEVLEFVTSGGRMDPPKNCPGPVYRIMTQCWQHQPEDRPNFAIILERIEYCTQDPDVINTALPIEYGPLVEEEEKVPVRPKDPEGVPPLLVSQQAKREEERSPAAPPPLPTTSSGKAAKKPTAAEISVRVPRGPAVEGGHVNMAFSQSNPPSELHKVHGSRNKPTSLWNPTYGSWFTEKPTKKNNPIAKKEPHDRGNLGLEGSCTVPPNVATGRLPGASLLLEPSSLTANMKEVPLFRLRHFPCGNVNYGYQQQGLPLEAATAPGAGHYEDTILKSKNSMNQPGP

Compound | % enzyme activity (ALK) [%] | % enzyme activity (DYRK3) [%] | % enzyme activity (IKKb/IKBKB) [%] | % enzyme activity (MAPKAPK5/PRAK) [%] | % enzyme activity (RET) [%] | remaining activity at 1 µM (CLK2) [%] | remaining activity at 1 µM (DCAMKL1) [%]
COc1cc(-c2cncc(-c3ccc(N4CCN(C)CC4)cc3)c2C)cc(F)c1C(N)=O [Compound 26a, 2-Fluoro-6-methoxy-4-(4-methyl-5-(4-(4-methylpiperazin-1-yl)phenyl)pyridin-3-yl)benzamide] | 99.31 | 88.30 | 101.39 | 90.60 | 94.34 | 91.7 | 81.8
COc1cc(-c2cncc(-c3ccc(N4C[C@@H](C)N(C)[C@@H](C)C4)cc3)c2C)cc(F)c1C(N)=O [Compound 26c, 2-Fluoro-6-methoxy-4-(4-methyl-5-(4-((3R,5S)-3,4,5-trimethylpiperazin-1-yl)phenyl)pyridin-3-yl)benzamide] | 96.51 | 96.01 | 100.59 | 94.46 | 93.64 | 90.3 | 89.1

From publication PMC8213057, “Targeting ALK2: An Open Science Approach to Developing Therapeutics for the Treatment of Diffuse Intrinsic Pontine Glioma” (Journal of Medicinal Chemistry, 2020)
